Measured values from US20160201112A1, “NANOSENSOR FOR DETECTING THE ACTIVITY OF GLYCOSAMINOGLYCAN-CLEAVING ENZYMES AND USES THEREOF” (VIRGINIA COMMONWEALTH UNIVERSITY, priority 2013, published 2016).
“Also recorded” adds a separate entry of the source.

Key:
[1] = test system: mixture of heparitinase I, II, and III; experiment: Heparitinase enzyme inhibition study, heparin disaccharides analysed by HPLC; assay type: biochemical; details: 10% w/w OSCS in heparin (90% heparin + 10% w/w OSCS)
Protocol: (§1) Once it was established that enzyme action causes the fluorescence probe to recover from being quenched, a heparitinase enzyme inhibition study was carried out in the presence of OSCS-contaminated heparin. For this study, a mixture of heparitinase I, II, and III was incubated with (a) heparin (200 μg), (b) heparin with 10% w/w chondroitin sulfate A and C and (c) heparin with 10% w/w OSCS. The resulting oligosaccharides were then analyzed by analytical HPLC. […] The enzyme activity on the nanosensor should be maximal at low OSCS concentration and minimal at high OSCS concentration. Consequently, the fluorescence quenching of the dye should be minimal at low OSCS concentrations (and measured fluorescence should be high) and quenching should be maximal at high OSCS concentrations (and measured fluorescence should below).

heparitinase = experiment: Au-heparin-dye nanosensor fluorescence assay with heparitinase and OSCS-spiked heparin (96-well plate); assay type: biochemical; details: in the presence of 10% w/w OSCS
Protocol: as §1
In order to develop an analytical method and kit for determining contamination in heparin, serial dilutions of OSCS were performed at log increment concentrations from 0.1 μg/μL to 0.1 femtogram (fg)/μL. Next, standard heparin solutions (10 μg) were spiked serially with OSCS solutions from 1 μg (10% w/w) to 0.1 fg (10^−9% w/w) of OSCS “contamination” resulting in 11 separate tests. Heparin (10 μg) and OSCS (10 μg) were utilized as positive and negative controls, respectively. […]

oversulfated chondroitin sulfate [OSCS] was tested, and the “inhibition of heparitinase enzyme activity (HPLC profile of heparin disaccharides)” value [1] was “completely inhibits the enzyme; also recorded: powerful inhibitor” and the “heparitinase action on Au-heparin-dye nanosensor (fluorescence quenching)” value (heparitinase) was “heparitinases could not act on the Au-heparin-dye nanosensor and fluorescence quenching was maintained”.
